ChEMBL document CHEMBL1201862, “PubChem BioAssay data set” (2004)
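All cell lines were grown in 96-well plates and treated with compound for 48 hours. GI50: concentration for 50% inhibition of growth.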 Active and inactive are the calls of the source. Cut-off read from the data, not from the text of the source: active = GI50 up to about 1.1 µM and inactive = higher.

Tests used:
Assay in all cases: DTP human tumour cell line panel, 48 h
SK-MEL-2 = tested on: SK-MEL-2
HOP-62 = tested on: HOP-62
SW-620 = tested on: SW-620
HCT-116 = tested on: HCT-116
IGROV-1 = tested on: IGROV-1
UACC-62 = tested on: UACC-62
KM12 = tested on: KM12
OVCAR-3 = tested on: OVCAR-3
SN12C = tested on: SN12C
SK-OV-3 = tested on: SK-OV-3
NCI-H522 = tested on: NCI-H522
K562 = tested on: K562
SF-268 = tested on: SF-268
HL-60 = tested on: HL-60
DMS-114 = tested on: DMS-114
UACC-257 = tested on: UACC-257
CCRF-CEM = tested on: CCRF-CEM
OVCAR-5 = tested on: OVCAR-5
OVCAR-4 = tested on: OVCAR-4
MDA-N = tested on: MDA-N

Structure (SMILES)	GI50 (SK-MEL-2)	GI50 (HOP-62)	GI50 (SW-620)	GI50 (HCT-116)	GI50 (IGROV-1)	GI50 (UACC-62)	GI50 (KM12)	GI50 (OVCAR-3)	GI50 (SN12C)	GI50 (SK-OV-3)	GI50 (NCI-H522)	GI50 (K562)	GI50 (SF-268)	GI50 (HL-60)	GI50 (DMS-114)	GI50 (UACC-257)	GI50 (CCRF-CEM)	GI50 (OVCAR-5)	GI50 (OVCAR-4)	GI50 (MDA-N)
C=CCn1c(=O)n(CC=C)c(=O)n(CC=C)c1=O	> 100 µM (inactive)	> 100 µM (inactive)	> 100 µM (inactive)	> 100 µM (inactive)	> 100 µM (inactive)	> 100 µM (inactive)	> 100 µM (inactive)	> 100 µM (inactive)	> 100 µM (inactive)	> 100 µM (inactive)	> 100 µM (inactive)	> 100 µM (inactive)	> 100 µM (inactive)	> 100 µM (inactive)	> 100 µM (inactive)	> 100 µM (inactive)	> 100 µM (inactive)	> 100 µM (inactive)	–	–
CC1(C2CCC3(C)OC3C2)CO1 (stereo not drawn)	> 100 µM (inactive)	> 100 µM (inactive)	> 100 µM (inactive)	> 100 µM (inactive)	> 100 µM (inactive)	> 100 µM (inactive)	> 100 µM (inactive)	> 100 µM (inactive)	> 100 µM (inactive)	> 100 µM (inactive)	> 100 µM (inactive)	> 100 µM (inactive)	> 100 µM (inactive)	> 100 µM (inactive)	> 100 µM (inactive)	> 100 µM (inactive)	> 100 µM (inactive)	> 100 µM (inactive)	> 100 µM (inactive)	–
COc1ccc2ccccc2c1CN1CCOCCOCCN(Cc2c(OC)ccc3ccccc23)CCOCCOCC1	46.3 µM (inactive)	> 100 µM (inactive)	> 62.1 µM (inactive)	25.1 µM (inactive)	> 100 µM (inactive)	> 85.5 µM (inactive)	> 41.7 µM (inactive)	16.7 µM (inactive)	> 69.8 µM (inactive)	> 100 µM (inactive)	> 60.5 µM (inactive)	> 25.6 µM (inactive)	> 80.5 µM (inactive)	32 µM (inactive)	9.95 µM (inactive)	45.2 µM (inactive)	> 39.1 µM (inactive)	> 100 µM (inactive)	> 100 µM (inactive)	–
CC(C)N(C(=O)C12C3C4C5(C(=O)O)C(C1C35I)C42C(=O)O)C(C)C (stereo not drawn)	–	> 100 µM (inactive)	> 100 µM (inactive)	> 100 µM (inactive)	> 100 µM (inactive)	> 100 µM (inactive)	> 100 µM (inactive)	> 100 µM (inactive)	> 100 µM (inactive)	> 100 µM (inactive)	> 100 µM (inactive)	> 100 µM (inactive)	> 100 µM (inactive)	> 100 µM (inactive)	> 100 µM (inactive)	> 100 µM (inactive)	> 100 µM (inactive)	> 100 µM (inactive)	> 100 µM (inactive)	–
COC(=O)c1nn(C(=N)c2ccc(Cl)cc2)c2c1CCCCC2	> 100 µM (inactive)	> 100 µM (inactive)	> 100 µM (inactive)	> 100 µM (inactive)	> 100 µM (inactive)	> 100 µM (inactive)	> 100 µM (inactive)	–	> 100 µM (inactive)	> 100 µM (inactive)	> 100 µM (inactive)	> 100 µM (inactive)	> 100 µM (inactive)	> 100 µM (inactive)	> 100 µM (inactive)	> 100 µM (inactive)	> 100 µM (inactive)	> 100 µM (inactive)	> 100 µM (inactive)	–
O=C(/C=C/c1ccc([N+](=O)[O-])cc1)c1ccc(NCc2nc3ccccc3[nH]2)cc1	14.9 µM (inactive)	10 µM (inactive)	2.25 µM (inactive)	–	4.48 µM (inactive)	9.84 µM (inactive)	1.78 µM (inactive)	3.09 µM (inactive)	2.96 µM (inactive)	13.6 µM (inactive)	3.26 µM (inactive)	2.3 µM (inactive)	5.71 µM (inactive)	1.6 µM (inactive)	1.91 µM (inactive)	3.41 µM (inactive)	1.57 µM (inactive)	13.5 µM (inactive)	13.3 µM (inactive)	–
CCOP(=S)(OCC)Oc1ccc2c(c1)OC(=O)C1(Cl)C2(C)C2(Cl)C(=O)Oc3cc(OP(=S)(OCC)OCC)ccc3C12C (stereo not drawn)	20.4 µM (inactive)	18.3 µM (inactive)	16.7 µM (inactive)	12.3 µM (inactive)	17.3 µM (inactive)	12.6 µM (inactive)	15.5 µM (inactive)	14.6 µM (inactive)	19.2 µM (inactive)	–	10.4 µM (inactive)	27.3 µM (inactive)	6.08 µM (inactive)	14.7 µM (inactive)	14.6 µM (inactive)	17.7 µM (inactive)	16.9 µM (inactive)	19 µM (inactive)	10.7 µM (inactive)	–
COC1=NCc2ccccc2-c2ccccc21	> 100 µM (inactive)	–	–	> 100 µM (inactive)	–	> 100 µM (inactive)	> 100 µM (inactive)	> 100 µM (inactive)	> 100 µM (inactive)	> 100 µM (inactive)	> 100 µM (inactive)	> 100 µM (inactive)	> 100 µM (inactive)	> 100 µM (inactive)	> 100 µM (inactive)	> 100 µM (inactive)	> 100 µM (inactive)	–	> 100 µM (inactive)	–
COC(=O)C1=C(c2cc(OC)c(OC)c(OC)c2)OC(c2ccc(OC)c(OC)c2)C1 (stereo not drawn)	61.2 µM (inactive)	59.3 µM (inactive)	33.5 µM (inactive)	43.8 µM (inactive)	61.1 µM (inactive)	71.4 µM (inactive)	29.2 µM (inactive)	38.6 µM (inactive)	51.6 µM (inactive)	40.5 µM (inactive)	–	45.1 µM (inactive)	55.8 µM (inactive)	27.4 µM (inactive)	28.4 µM (inactive)	40.6 µM (inactive)	60.1 µM (inactive)	> 100 µM (inactive)	47.2 µM (inactive)	–
CCC(=S)N(C)O	29.4 µM (inactive)	43.5 µM (inactive)	4.09 µM (inactive)	2.39 µM (inactive)	6.93 µM (inactive)	20 µM (inactive)	25 µM (inactive)	3.08 µM (inactive)	22 µM (inactive)	76.9 µM (inactive)	0.41 µM (active)	0.52 µM (active)	47.4 µM (inactive)	1.48 µM (inactive)	2.22 µM (inactive)	50.9 µM (inactive)	0.459 µM (active)	45.1 µM (inactive)	9.53 µM (inactive)	35.9 µM (inactive)
CN(C)C(=S)/N=c1\ss/c(=N\S(=O)(=O)c2ccccc2)n1N(C)C	> 100 µM (inactive)	> 100 µM (inactive)	> 100 µM (inactive)	75 µM (inactive)	> 100 µM (inactive)	> 100 µM (inactive)	> 100 µM (inactive)	> 100 µM (inactive)	> 100 µM (inactive)	> 100 µM (inactive)	4.92 µM (inactive)	59.8 µM (inactive)	69.8 µM (inactive)	> 100 µM (inactive)	12.9 µM (inactive)	> 100 µM (inactive)	37.9 µM (inactive)	–	> 100 µM (inactive)	–
Oc1ccc2ccccc2c1/N=N/c1ccsc1	> 100 µM (inactive)	> 100 µM (inactive)	> 100 µM (inactive)	42.7 µM (inactive)	> 100 µM (inactive)	> 100 µM (inactive)	24.9 µM (inactive)	> 100 µM (inactive)	> 100 µM (inactive)	> 100 µM (inactive)	> 100 µM (inactive)	> 100 µM (inactive)	> 100 µM (inactive)	73.8 µM (inactive)	> 100 µM (inactive)	> 100 µM (inactive)	83.8 µM (inactive)	> 100 µM (inactive)	> 100 µM (inactive)	–
CC12C(=CC(=O)CC1SCCS(=O)(=O)O)C(C#N)=C(N)N2c1ccc(Cl)c(Cl)c1 (stereo not drawn)	> 100 µM (inactive)	> 100 µM (inactive)	78.9 µM (inactive)	> 100 µM (inactive)	> 100 µM (inactive)	> 100 µM (inactive)	> 100 µM (inactive)	> 100 µM (inactive)	> 100 µM (inactive)	> 100 µM (inactive)	36 µM (inactive)	> 100 µM (inactive)	> 100 µM (inactive)	> 100 µM (inactive)	> 100 µM (inactive)	> 100 µM (inactive)	> 100 µM (inactive)	–	> 100 µM (inactive)	–
COc1cccc(/C=N/[N-]C(=S)Nc2ccccc2)c1[O-].O.[Zn+2]	63.7 µM (inactive)	17 µM (inactive)	56.4 µM (inactive)	–	52 µM (inactive)	19.7 µM (inactive)	40.6 µM (inactive)	40.5 µM (inactive)	> 100 µM (inactive)	44.4 µM (inactive)	19.7 µM (inactive)	42 µM (inactive)	47 µM (inactive)	28.8 µM (inactive)	15.4 µM (inactive)	55.5 µM (inactive)	29.3 µM (inactive)	> 100 µM (inactive)	23.5 µM (inactive)	–
COc1cccc2c1C(=O)c1c(O)c3c(c(O)c1C2=O)CC(O)(C(O)CO)CC3OC1CC(N2CCOCC2)C(O)C(C)O1 (stereo not drawn)	0.00422 µM (active)	0.00315 µM (active)	0.00144 µM (active)	< 0.001 µM (active)	0.00279 µM (active)	< 0.001 µM (active)	0.00551 µM (active)	0.0023 µM (active)	0.00205 µM (active)	0.00362 µM (active)	0.00273 µM (active)	0.00412 µM (active)	0.00231 µM (active)	–	0.018 µM (active)	0.00338 µM (active)	0.00849 µM (active)	0.00475 µM (active)	0.00337 µM (active)	0.0143 µM (active)
